Results taken from patent publication US8623859B2, “Bradykinin B1 antagonists” (Evotec AG, priority 2008, dated 2014).
Counter-ions that a name gives are not always drawn.

target: T1, human B1 (Homo sapiens, UniProt P46663); assay: Calcium flux assay for Bradykinin B1 antagonist, CHO-K1 cell line expressing human B1; assay type: cell-based; conditions: CHO-K1 cells expressing human B1, agonist Lys-(Des-Arg)-Bradykinin, read-out: Potency (IC50 value against human B1)
T1 construct: host or cells: CHO-K1
T1 sequence (P46663 1-353): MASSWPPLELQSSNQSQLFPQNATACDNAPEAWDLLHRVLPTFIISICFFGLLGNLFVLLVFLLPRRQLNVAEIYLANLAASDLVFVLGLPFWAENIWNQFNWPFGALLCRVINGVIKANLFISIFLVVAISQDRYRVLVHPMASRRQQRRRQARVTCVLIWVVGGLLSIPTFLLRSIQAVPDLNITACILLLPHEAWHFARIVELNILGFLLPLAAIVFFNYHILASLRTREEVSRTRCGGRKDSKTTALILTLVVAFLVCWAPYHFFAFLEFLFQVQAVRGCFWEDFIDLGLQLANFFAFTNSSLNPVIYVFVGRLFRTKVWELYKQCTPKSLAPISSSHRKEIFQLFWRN
Method in brief: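 Inhibition of B1 agonist-evoked intracellular Ca2+ rise was followed by continuous fluorescence at 538 nm, with integrated, background-normalized signals plotted versus log compound concentration. Test compounds (eight 10-fold dilutions, triplicate, 1% DMSO final) were added 30 min at 25° C beforehand to Fluo-4AM-loaded human B1 CHO-K1 cells in pH 7.4 assay buffer.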

IC50 | SMILES
10 to 100 nM | COc1cc(C)c(S(=O)(=O)N(C)Cc2nnc(C(=O)N3CCC(CCN4CCCC4)CC3)o2)c(C)c1 [Ex 280, 4-Methoxy-N,2,6-trimethyl-N-[(5-{[4-(2-pyrrolidin-1-ylethyl)piperidin-1-yl]carbonyl}-1,3,4-oxadiazol-2-yl)methyl]benzenesulfonamide]
100 to 1000 nM | COc1cc(C)c(S(=O)(=O)N(C)Cc2nc(C(=O)N3CCN(CCN4CCCC4)CC3)co2)c(C)c1 [Ex 164, 4-Methoxy-N,2,6-trimethyl-N-[(4-{[4-(2-pyrrolidin-1-ylethyl)piperazin-1-yl]carbonyl}-1,3-oxazol-2-yl)methyl]benzenesulfonamide]
100 to 1000 nM | [2H]C([2H])([2H])N(Cc1nnc(C(=O)N2CCN(CC3CCN(C)CC3)CC2)o1)S(=O)(=O)c1c(C)cc(OC)cc1C [Ex 291, 4-Methoxy-2,6-dimethyl-N-(^2H3)methyl-N-{[5-({4-[(1-methylpiperidin-4-yl)methyl]piperazin-1-yl}carbonyl)-1,3,4-oxadiazol-2-yl]methyl}benzenesulfonamide trifluoroacetate]
10 to 100 nM | COc1cc(C)c(S(=O)(=O)N(Cc2nc(C(=O)N3CCC(O)(/C=C/c4cccnc4)CC3)co2)C2CC2)c(C)c1 [Ex 240, N-Cyclopropyl-N-{[4-({4-hydroxy-4-[(E)-2-pyridin-3-ylethenyl]piperidin-1-yl}carbonyl)-1,3-oxazol-2-yl]methyl}-4-methoxy-2,6-dimethylbenzenesulfonamide trifluoroacetate]
100 to 1000 nM | COc1cc(C)c(S(=O)(=O)N(C)Cc2nc(C(=O)N3CCN(CCCCN(C)C)CC3)no2)c(C)c1 [Ex 322, N-{[3-({4-[4-(Dimethylamino)butyl]piperazin-1-yl}carbonyl)-1,2,4-oxadiazol-5-yl]methyl}-4-methoxy-N,2,6-trimethylbenzenesulfonamide trifluoroacetate]
< 10 nM | COc1cc(C)c(S(=O)(=O)N(Cc2nnc(C(=O)N3CCC(CCN4CCCC4)CC3)o2)C2CC2)c(C)c1 [Ex 274, N-Cyclopropyl-4-methoxy-2,6-dimethyl-N-[(5-{[4-(2-pyrrolidin-1-ylethyl)piperidin-1-yl]carbonyl}-1,3,4-oxadiazol-2-yl)methyl]benzenesulfonamide]
100 to 1000 nM | COc1cc(C)c(S(=O)(=O)N(Cc2cc(C(=O)N3CCN(CCN4CCCCC4)CC3)co2)C2CC2)c(C)c1 [Ex 109, N-Cyclopropyl-4-methoxy-2,6-dimethyl-N-[(4-{[4-(2-piperidin-1-ylethyl)piperazin-1-yl]carbonyl}furan-2-yl)methyl]benzenesulfonamide trifluoroacetate]
100 to 1000 nM | COc1cc(C)c(S(=O)(=O)N(C)Cc2cc(C(=O)NCc3ccc(CN4CCCCCC4)cc3)co2)c(C)c1 [Ex 101, N-[4-(Azepan-1-ylmethyl)benzyl]-5-({[(4-methoxy-2,6-dimethylphenyl)sulfonyl](methyl)amino}methyl)furan-3-carboxamide trifluoroacetate]
< 10 nM | CN(Cc1ccc(C2=NCCN2)cc1)C(=O)c1coc(CN(C2CC2)S(=O)(=O)c2c(Cl)cc(Br)cc2Cl)c1 [Ex 123, 5-({[(4-Bromo-2,6-dichlorophenyl)sulfonyl](cyclopropyl)amino}methyl)-N-[4-(4,5-dihydro-1H-imidazol-2-yl)benzyl]-N-methylfuran-3-carboxamide trifluoroacetate]
100 to 1000 nM | CCN1CCN(CCNC(=O)c2coc(CN(C3CC3)S(=O)(=O)c3c(C)cc(OC)cc3C)c2)CC1 [Ex 113, 5-({Cyclopropyl[(4-methoxy-2,6-dimethylphenyl)sulfonyl]amino}methyl)-N-[2-(4-ethylpiperazin-1-yl)ethyl]furan-3-carboxamide trifluoroacetate]
10 to 100 nM | CN(CCc1ccc(C2=NCCN2)cc1)C(=O)c1coc(CN(C2CC2)S(=O)(=O)c2c(Cl)cc(Cl)cc2Cl)n1 [Ex 215, 2-({Cyclopropyl[(2,4,6-trichlorophenyl)sulfonyl]amino}methyl)-N-{2-[4-(4,5-dihydro-1H-imidazol-2-yl)phenyl]ethyl}-N-methyl-1,3-oxazole-4-carboxamide trifluoroacetate]
10 to 100 nM | COc1cc(C)c(S(=O)(=O)N(C)Cc2nnc(C(=O)N(C)Cc3cccc(CN4CCCC4)c3)o2)c(C)c1 [Ex 289, 5-({[(4-Methoxy-2,6-dimethylphenyl)sulfonyl](methyl)amino}methyl)-N-methyl-N-[3-(pyrrolidin-1-ylmethyl)benzyl]-1,3,4-oxadiazole-2-carboxamide]
100 to 1000 nM | COc1cc(C)c(S(=O)(=O)N(C)Cc2nnc(C(=O)N(C)Cc3ccc(CN4CCCC4)cc3)s2)c(C)c1 [Ex 329, 5-({[(4-Methoxy-2,6-dimethylphenyl)sulfonyl](methyl)amino}methyl)-N-methyl-N-[4-(pyrrolidin-1-ylmethyl)benzyl]-1,3,4-thiadiazole-2-carboxamide]
< 10 nM | COc1cc(C)c(S(=O)(=O)N(Cc2nc(C(=O)N(C)Cc3ccc(CN4CC(OC)C4)cc3)co2)C2CC2)c(C)c1 [Ex 187, 2-({Cyclopropyl[(4-methoxy-2,6-dimethylphenyl)sulfonyl]amino}methyl)-N-{4-[(3-methoxyazetidin-1-yl)methyl]benzyl}-N-methyl-1,3-oxazole-4-carboxamide]
100 to 1000 nM | COc1cc(C)c(S(=O)(=O)N(Cc2cc(C(=O)N3CCC(N4CCN(C)CC4)CC3)co2)C2CC2)c(C)c1 [Ex 119, N-Cyclopropyl-4-methoxy-2,6-dimethyl-N-[(4-{[4-(4-methylpiperazin-1-yl)piperidin-1-yl]carbonyl}furan-2-yl)methyl]benzenesulfonamide trifluoroacetate]
10 to 100 nM | COc1cc(C)c(S(=O)(=O)N(Cc2cc(C(=O)NCc3ccc(CN4CCCC4)cc3)co2)C2CC2)c(C)c1 [Ex 56, 5-({Cyclopropyl[(4-methoxy-2,6-dimethylphenyl)sulfonyl]amino}methyl)-N-[4-(pyrrolidin-1-ylmethyl)benzyl]furan-3-carboxamide]
100 to 1000 nM | COc1cc(C)c(S(=O)(=O)N(C)Cc2nnc(C(=O)N3CCN(C4CCN(C)CC4)CC3)o2)c(C)c1 [Ex 270, 4-Methoxy-N,2,6-trimethyl-N-[(5-{[4-(1-methylpiperidin-4-yl)piperazin-1-yl]carbonyl}-1,3,4-oxadiazol-2-yl)methyl]benzenesulfonamide trifluoroacetamide]
100 to 1000 nM | COc1cc(C)c(S(=O)(=O)N(Cc2nc(C(=O)N3CCN(Cc4ccnc(N5CCCC5)c4)CC3)co2)C2CC2)c(C)c1 [Ex 256, N-Cyclopropyl-4-methoxy-2,6-dimethyl-N-{[4-({4-[(2-pyrrolidin-1-ylpyridin-4-yl)methyl]piperazin-1-yl}carbonyl)-1,3-oxazol-2-yl]methyl}benzenesulfonamide]
100 to 1000 nM | COc1cc(C)c(S(=O)(=O)N(C)Cc2nnc(C(=O)N(C)Cc3ccc4c(c3)CN(C)C4)o2)c(C)c1 [Ex 288, 5-({[(4-Methoxy-2,6-dimethylphenyl)sulfonyl](methyl)amino}methyl)-N-methyl-N-[(2-methyl-2,3-dihydro-1H-isoindol-5-yl)methyl]-1,3,4-oxadiazole-2-carboxamide]
100 to 1000 nM | COc1cc(C)c(S(=O)(=O)N(C)Cc2cc(C(=O)N3CCN(CCN4CCOCC4)CC3)co2)c(C)c1 [Ex 35, 4-methoxy-N,2,6-trimethyl-N-[(4-{[4-(2-morpholin-4-ylethyl)piperazin-1-yl]carbonyl}furan-2-yl)methyl]benzenesulfonamide]
10 to 100 nM | COc1cc(C)c(S(=O)(=O)N(Cc2cc(C(=O)N3CCN(CC4CCN(C)CC4)CC3)co2)C2CC2)c(C)c1 [Ex 105, N-Cyclopropyl-4-methoxy-2,6-dimethyl-N-{[4-({4-[(1-methylpiperidin-4-yl)methyl]piperazin-1-yl}carbonyl)furan-2-yl]methyl}benzenesulfonamide trifluoroacetate]
10 to 100 nM | COc1cc(C)c(S(=O)(=O)N(C)Cc2cc(C(=O)N(C)Cc3cc(F)cc(CN4CCCC4)c3)co2)c(C)c1 [Ex 158, N-[3-Fluoro-5-(pyrrolidin-1-ylmethyl)benzyl]-5-({[(4-methoxy-2,6-dimethylphenyl)sulfonyl](methyl)amino}methyl)-N-methylfuran-3-carboxamide trifluoroacetate]
< 10 nM | COc1cc(C)c(S(=O)(=O)N(Cc2nc(C(=O)N3CCN(CC4CCN(C)CC4)CC3)co2)C2CC2)c(C)c1 [Ex 191, N-Cyclopropyl-4-methoxy-2,6-dimethyl-N-{[4-({4-[(1-methylpiperidin-4-yl)methyl]piperazin-1-yl}carbonyl)-1,3-oxazol-2-yl]methyl}benzenesulfonamide trifluoroacetate trifluoroacetate]
10 to 100 nM | COc1cc(C)c(S(=O)(=O)N(Cc2cc(C(=O)N3CCN(CCCN(C)C)CC3)co2)C2CC2)c(C)c1 [Ex 118, N-Cyclopropyl-N-{[4-({4-[3-(dimethylamino)propyl]piperazin-1-yl}carbonyl)furan-2-yl]methyl}-4-methoxy-2,6-dimethylbenzenesulfonamide trifluoroacetate]
10 to 100 nM | CCc1cc(Br)ccc1S(=O)(=O)N(C)Cc1cc(C(=O)N2CCCN(CCCN3CCCC3)CC2)co1 [Ex 15, 4-bromo-2-ethyl-N-methyl-N-[(4-{[4-(3-pyrrolidin-1-ylpropyl)-1,4-diazepan-1-yl]carbonyl}furan-2-yl)methyl]benzenesulfonamide]
